Residues, ends and D or L forms follow the SMILES beside them. *: point of attachment. Cbz = O=C(OCc1ccccc1)*; CHN2 = [N-]=[N+]=C*
Legend:
[1] = target: 72 kDa type IV collagenase (Homo sapiens, UniProt P08253)
[2] = target: T1, Procathepsin L (Homo sapiens, UniProt P07711); assay: Inhibitory activity against cathepsin L, lysosomal cysteine protease
[3] = target: Cathepsin K (Homo sapiens, UniProt P43235); assay: The apparent binding affinity against cathepsin K.; conditions: read-out: Ki app
[4] = target: Cathepsin S (Homo sapiens, UniProt P25774); assay: The apparent binding affinity against cathepsin S.; conditions: read-out: Ki app
[5] = target: Cathepsin B (Homo sapiens, UniProt P07858)
[6] = target: T1, Procathepsin L
[7] = target: Angiotensin-converting enzyme (Homo sapiens, UniProt P12821)
[8] = target: Serine protease 1 (Homo sapiens, UniProt P07477)
[9] = Oral bioavailability in dog; format: ADME, organism-based, Canis lupus familiaris; conditions: in vivo
[10] = target: Stromelysin-1 (Homo sapiens, UniProt P08254)
[11] = target: T2, Interstitial collagenase (Homo sapiens, UniProt P03956)
T2 sequence (P03956 whole entry): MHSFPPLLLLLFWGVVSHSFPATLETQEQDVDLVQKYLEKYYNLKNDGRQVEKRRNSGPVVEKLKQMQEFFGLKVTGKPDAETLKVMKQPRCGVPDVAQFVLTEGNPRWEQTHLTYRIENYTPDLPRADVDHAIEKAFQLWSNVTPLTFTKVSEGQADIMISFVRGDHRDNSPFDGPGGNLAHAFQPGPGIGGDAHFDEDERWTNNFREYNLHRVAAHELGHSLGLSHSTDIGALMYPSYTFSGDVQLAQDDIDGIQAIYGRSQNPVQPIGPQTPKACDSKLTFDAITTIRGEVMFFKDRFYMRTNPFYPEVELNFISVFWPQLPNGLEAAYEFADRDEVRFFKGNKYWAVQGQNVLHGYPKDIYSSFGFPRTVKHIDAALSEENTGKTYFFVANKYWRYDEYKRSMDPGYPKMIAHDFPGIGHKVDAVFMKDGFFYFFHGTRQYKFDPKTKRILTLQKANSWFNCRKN

[12] = target: Coagulation factor X (Homo sapiens, UniProt P00742)
[13] = target: Matrilysin (Homo sapiens, UniProt P09237); assay: Inhibition of matrix metalloprotease-7 (MMP-7).
[14] = target: T3, Neprilysin (Rattus norvegicus, UniProt P07861)
T3 sequence (P07861 whole entry): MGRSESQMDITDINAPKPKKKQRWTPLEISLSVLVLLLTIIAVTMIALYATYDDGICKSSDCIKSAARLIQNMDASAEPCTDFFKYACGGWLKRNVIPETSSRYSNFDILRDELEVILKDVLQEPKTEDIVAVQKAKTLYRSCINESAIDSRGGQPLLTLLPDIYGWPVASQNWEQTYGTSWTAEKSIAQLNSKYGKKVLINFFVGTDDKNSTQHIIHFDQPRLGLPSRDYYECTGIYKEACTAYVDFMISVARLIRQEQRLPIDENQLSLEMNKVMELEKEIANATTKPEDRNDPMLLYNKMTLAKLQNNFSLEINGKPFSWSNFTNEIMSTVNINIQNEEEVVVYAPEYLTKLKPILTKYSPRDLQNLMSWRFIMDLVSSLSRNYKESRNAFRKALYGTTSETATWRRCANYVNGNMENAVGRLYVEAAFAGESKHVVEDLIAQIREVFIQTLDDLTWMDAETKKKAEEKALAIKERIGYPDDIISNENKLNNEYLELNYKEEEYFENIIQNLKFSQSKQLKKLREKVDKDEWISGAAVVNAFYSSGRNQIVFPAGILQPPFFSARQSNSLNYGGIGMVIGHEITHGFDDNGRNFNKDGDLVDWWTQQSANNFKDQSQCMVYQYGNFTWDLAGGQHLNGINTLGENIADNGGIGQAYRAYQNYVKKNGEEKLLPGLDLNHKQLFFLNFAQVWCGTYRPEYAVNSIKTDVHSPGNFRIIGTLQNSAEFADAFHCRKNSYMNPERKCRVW

[15] = Oral bioavailability in human; format: ADME, organism-based; conditions: in vivo
[16] = target: Tryptase (Homo sapiens, UniProt Q9BZJ3+Q15661+Q9NRR2); assay: Binding affinity against Tryptase.; format: protein assay

Sequence of Stromelysin-1 (P08254 whole entry): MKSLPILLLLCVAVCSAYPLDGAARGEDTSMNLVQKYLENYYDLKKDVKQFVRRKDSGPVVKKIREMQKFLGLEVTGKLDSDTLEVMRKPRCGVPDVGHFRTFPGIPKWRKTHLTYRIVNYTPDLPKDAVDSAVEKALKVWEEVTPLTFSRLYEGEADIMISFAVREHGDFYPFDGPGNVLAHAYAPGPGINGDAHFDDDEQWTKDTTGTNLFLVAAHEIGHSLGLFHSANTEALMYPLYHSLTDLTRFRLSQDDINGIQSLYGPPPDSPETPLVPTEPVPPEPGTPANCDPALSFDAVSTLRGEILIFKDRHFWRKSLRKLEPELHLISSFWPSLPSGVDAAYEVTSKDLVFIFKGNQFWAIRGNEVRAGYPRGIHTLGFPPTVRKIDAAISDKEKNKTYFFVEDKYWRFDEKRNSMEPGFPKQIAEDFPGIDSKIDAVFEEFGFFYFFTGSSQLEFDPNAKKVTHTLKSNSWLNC
Sequence of Angiotensin-converting enzyme (P12821 whole entry): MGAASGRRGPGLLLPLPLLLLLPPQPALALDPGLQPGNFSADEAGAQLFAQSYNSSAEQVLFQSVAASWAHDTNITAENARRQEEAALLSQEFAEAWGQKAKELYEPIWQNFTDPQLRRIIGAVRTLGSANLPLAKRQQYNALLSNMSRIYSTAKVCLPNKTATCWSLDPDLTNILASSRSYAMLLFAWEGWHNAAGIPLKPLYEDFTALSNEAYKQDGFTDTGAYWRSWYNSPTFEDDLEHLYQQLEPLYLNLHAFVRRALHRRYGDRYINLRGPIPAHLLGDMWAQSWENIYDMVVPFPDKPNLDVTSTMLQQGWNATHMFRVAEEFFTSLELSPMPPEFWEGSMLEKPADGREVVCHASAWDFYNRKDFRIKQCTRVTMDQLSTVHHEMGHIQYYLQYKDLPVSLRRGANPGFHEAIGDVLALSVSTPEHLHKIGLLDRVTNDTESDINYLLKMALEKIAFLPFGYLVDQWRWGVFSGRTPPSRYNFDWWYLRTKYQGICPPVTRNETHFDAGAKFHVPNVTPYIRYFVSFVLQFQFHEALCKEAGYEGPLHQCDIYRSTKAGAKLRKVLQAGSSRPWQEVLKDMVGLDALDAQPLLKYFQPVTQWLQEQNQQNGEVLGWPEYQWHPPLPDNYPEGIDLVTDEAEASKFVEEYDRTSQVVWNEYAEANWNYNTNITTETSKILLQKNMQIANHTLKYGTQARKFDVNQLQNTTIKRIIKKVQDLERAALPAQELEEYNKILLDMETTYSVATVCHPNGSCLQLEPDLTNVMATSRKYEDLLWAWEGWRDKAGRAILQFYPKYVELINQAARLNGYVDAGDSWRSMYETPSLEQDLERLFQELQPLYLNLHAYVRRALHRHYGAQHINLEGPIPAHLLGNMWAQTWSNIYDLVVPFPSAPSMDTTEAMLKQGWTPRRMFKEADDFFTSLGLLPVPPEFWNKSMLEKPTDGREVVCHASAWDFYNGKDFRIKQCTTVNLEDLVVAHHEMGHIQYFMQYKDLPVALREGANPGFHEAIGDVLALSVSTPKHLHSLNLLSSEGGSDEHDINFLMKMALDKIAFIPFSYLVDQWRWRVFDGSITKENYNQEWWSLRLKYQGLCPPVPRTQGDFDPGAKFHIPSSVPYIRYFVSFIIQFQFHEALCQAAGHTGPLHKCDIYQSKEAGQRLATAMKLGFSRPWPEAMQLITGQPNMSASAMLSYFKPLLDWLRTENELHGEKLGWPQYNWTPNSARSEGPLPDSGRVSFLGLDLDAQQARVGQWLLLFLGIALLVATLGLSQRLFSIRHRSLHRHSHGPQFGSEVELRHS
T1 sequence (P07711 whole entry): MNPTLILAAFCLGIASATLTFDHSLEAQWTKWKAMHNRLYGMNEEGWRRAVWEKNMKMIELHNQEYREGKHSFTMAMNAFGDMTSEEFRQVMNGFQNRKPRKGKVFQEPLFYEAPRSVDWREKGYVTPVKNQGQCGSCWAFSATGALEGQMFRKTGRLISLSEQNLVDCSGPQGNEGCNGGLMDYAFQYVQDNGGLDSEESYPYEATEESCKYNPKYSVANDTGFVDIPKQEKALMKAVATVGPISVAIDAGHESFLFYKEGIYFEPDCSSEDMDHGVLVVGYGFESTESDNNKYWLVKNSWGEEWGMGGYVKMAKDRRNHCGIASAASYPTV
Sequence of Coagulation factor X (P00742 41-179 limits assumed): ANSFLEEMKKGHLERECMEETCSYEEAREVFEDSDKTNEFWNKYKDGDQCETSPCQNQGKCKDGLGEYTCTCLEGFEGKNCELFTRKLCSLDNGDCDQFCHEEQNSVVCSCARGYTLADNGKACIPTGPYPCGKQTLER
Sequence of Coagulation factor X (P00742 235-488 limits assumed): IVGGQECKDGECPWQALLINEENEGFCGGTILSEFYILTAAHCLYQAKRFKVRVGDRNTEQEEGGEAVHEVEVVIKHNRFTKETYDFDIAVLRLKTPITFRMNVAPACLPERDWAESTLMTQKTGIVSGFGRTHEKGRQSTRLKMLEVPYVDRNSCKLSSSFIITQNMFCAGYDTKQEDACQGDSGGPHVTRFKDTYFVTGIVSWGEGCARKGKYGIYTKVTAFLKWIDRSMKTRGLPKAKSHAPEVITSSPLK
Sequence of 72 kDa type IV collagenase (P08253 whole entry): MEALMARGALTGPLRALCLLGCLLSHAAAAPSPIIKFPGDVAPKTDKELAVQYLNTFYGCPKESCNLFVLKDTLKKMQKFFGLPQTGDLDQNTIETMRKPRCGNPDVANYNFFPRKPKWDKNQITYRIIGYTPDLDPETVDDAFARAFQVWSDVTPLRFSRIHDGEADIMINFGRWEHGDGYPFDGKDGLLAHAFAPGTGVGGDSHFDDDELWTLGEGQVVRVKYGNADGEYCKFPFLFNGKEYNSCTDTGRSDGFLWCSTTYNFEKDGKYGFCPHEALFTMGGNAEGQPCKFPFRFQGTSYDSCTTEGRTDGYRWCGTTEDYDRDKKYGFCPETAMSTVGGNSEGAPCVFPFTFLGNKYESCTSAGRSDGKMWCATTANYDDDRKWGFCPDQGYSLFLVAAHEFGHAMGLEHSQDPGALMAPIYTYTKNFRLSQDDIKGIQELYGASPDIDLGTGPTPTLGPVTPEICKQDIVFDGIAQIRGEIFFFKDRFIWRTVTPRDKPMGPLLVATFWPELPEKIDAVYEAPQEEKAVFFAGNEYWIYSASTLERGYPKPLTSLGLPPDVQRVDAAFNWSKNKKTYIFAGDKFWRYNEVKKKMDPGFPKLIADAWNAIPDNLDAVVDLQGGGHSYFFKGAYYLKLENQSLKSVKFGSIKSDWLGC
Sequence of Cathepsin K (P43235 whole entry): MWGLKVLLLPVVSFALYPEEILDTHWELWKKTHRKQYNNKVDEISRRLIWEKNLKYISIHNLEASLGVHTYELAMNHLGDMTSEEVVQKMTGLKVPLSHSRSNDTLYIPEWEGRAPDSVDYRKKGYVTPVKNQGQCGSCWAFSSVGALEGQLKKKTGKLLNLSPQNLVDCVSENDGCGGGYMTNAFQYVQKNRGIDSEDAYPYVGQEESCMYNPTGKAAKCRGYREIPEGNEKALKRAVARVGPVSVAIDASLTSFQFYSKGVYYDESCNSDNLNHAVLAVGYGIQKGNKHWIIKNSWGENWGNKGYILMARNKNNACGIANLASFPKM
Sequence of Serine protease 1 (P07477 whole entry): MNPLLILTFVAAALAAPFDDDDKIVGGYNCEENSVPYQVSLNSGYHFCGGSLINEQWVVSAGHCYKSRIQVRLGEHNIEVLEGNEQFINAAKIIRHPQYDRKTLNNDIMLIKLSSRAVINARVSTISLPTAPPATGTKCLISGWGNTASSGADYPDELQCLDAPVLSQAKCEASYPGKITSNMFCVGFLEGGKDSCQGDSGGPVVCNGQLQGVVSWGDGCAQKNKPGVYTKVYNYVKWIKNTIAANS
Sequence of Cathepsin S (P25774 whole entry): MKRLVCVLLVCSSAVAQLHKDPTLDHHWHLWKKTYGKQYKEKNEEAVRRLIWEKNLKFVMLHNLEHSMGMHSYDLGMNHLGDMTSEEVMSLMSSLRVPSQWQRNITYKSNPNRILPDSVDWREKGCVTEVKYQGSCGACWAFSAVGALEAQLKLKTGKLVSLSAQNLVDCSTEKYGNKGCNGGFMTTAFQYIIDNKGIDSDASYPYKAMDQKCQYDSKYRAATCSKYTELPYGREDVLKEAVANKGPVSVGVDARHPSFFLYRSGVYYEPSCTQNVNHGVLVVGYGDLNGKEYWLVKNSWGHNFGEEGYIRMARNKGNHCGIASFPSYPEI
Sequence of Matrilysin (P09237 whole entry): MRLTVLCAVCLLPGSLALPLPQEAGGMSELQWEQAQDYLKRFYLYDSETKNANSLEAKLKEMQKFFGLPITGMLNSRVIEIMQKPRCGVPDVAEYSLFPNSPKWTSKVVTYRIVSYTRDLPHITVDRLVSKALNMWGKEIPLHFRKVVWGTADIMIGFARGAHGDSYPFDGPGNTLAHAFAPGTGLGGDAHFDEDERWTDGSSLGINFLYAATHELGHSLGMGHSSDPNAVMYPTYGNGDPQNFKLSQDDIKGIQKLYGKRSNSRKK

With CNC(=O)[C@@H](Cc1c(F)c(F)c(F)c(F)c1F)NC(=O)Nc1nnc(S)s1 the Ki [1] was 3000 nM.
O=CC(Cc1ccccc1)NC(=O)C(Cc1ccccc1)NC(=O)OCc1ccccc1 (stereo not drawn) (Cbz-Phe-Phe-aldehyde; configuration not given here) showed an IC50 [2] of 0.74 nM.
In the case of CC(C)C[C@H](C(=O)NCC(=O)CNS(=O)(=O)c1ccc(Oc2ccccc2)cc1)c1cccc(-c2ccccc2)c1, the Ki [3] is reported as 1.4 nM, the Ki [4] is reported as 910 nM and the Ki [5] is reported as over 10000 nM. For the same molecule, the Ki [6] was over 1000 nM.
In the case of CC(C)C[C@H](NC(=O)OCc1ccccc1)C(=O)NC1CCN(S(=O)(=O)c2ccc(Oc3ccccc3)cc2)CC1=O (some centres undefined), the Ki [5] is reported as over 1000 nM and the Ki [6] is reported as over 1000 nM.
CCOC(=O)[C@H](CCc1ccccc1)N[C@@H](C)C(=O)N1[C@H](C(=O)O)C[C@@H]2CCC[C@@H]21 showed an IC50 [7] of 4 nM.
CC1=CCN(C(=O)[C@H](Cc2ccc(C(=N)N)cc2)NS(=O)(=O)c2ccc3c(c2)CN(C)CC3)[C@@H](C(=O)O)C1 gave a Ki [8] of 0.46 nM and a bioavailability [9] of 45%.
For CCCCc1nc(Cl)c(CO)n1Cc1ccc(-c2ccccc2-c2nn[nH]n2)cc1 [LOSARTAN], the IC50 [7] was 19 nM.
Molecule CNC(=O)[C@@H]1CCCCN(C(=O)OC(C)(C)C)CCC[C@H](C(=O)NO)[C@@H](CC(C)C)C(=O)N1 has a Ki [10] of under 1 nM, a Ki [1] of under 3 nM and a Ki [11] of under 1 nM.
For N=C(N)c1cccc(-c2cccc([C@H](CCCNc3ccncc3)C(=O)O)c2)c1, the IC50 [12] was 270 nM.
For CC(C)C[C@@H](C=O)NC(=O)[C@H](CC(C)C)NC(=O)[C@H](CC(C)C)NC(=O)OCc1ccccc1 [MG-132] (Cbz-Leu-Leu-Leu-aldehyde), the Ki [3] was 1.4 nM.
O=C(NO)C1(CS(=O)(=O)c2ccc(Oc3ccc(Cl)cc3)cc2)CCOCC1 [CTS-1027] gave a Ki [10] of 9.3 nM, a Ki [13] of 1200 nM and a Ki [11] of 590 nM.
CNC(=O)[C@@H](NC(=O)[C@H](CCCCOc1ccccc1)CP(=O)(O)Cc1ccc(Cc2ccccc2)cc1)C(C)(C)C showed a Ki [10] of 30 nM and a Ki [11] of over 30000 nM.
For O=C(NC1CCC[C@H]2CCC[C@@H](C(=O)O)N2C1=O)[C@@H](S)Cc1ccccc1 (some centres undefined), the IC50 [7] was 5 nM and the IC50 [14] was 8 nM.
Molecule CCCCNC(=O)[C@@H](C[C@H](O)[C@H](CC1CCCCC1)NC(=O)[C@H](Cc1c[nH]cn1)NC(=O)[C@H](Cc1ccccc1)CS(=O)(=O)C(C)(C)C)C(C)C has a bioavailability [15] of under 1%.
With [N-]=[N+]=CC(=O)[C@H](Cc1ccccc1)NC(=O)[C@H](Cc1ccccc1)NC(=O)OCc1ccccc1 (Cbz-Phe-Phe-CHN2) the IC50 [2] was 50 nM.
Molecule NC1CCC(CNC(=O)[C@@H]2CCCN2C(=O)[C@H](N)C(C2CCCCC2)C2CCCCC2)CC1 (some centres undefined) has a bioavailability [9] of 90%.
O=C(O)C(CCc1ccccc1)N[C@@H](Cc1ccccc1)C(=O)NC[C@H](O)C(=O)O (some centres undefined) gave an IC50 [7] of over 10000 nM and an IC50 [14] of 11 nM.
In the case of C[C@H](CSC(=O)c1ccccc1)C(=O)N1C[C@@H](Sc2ccccc2)C[C@H]1C(=O)O [ZOFENOPRIL], the IC50 [7] is reported as 0.4 nM.
Molecule CCOC(=O)[C@H](CCc1ccccc1)N[C@H]1CCc2ccccc2N(CC(=O)O)C1=O [BENAZEPRIL] has an IC50 [7] of 1.7 nM.
For N=C(N)NCCC[C@H](NC(=O)c1ccc2ccccc2c1O)C(=O)N1CCC[C@H]1C(N)=O, the Ki [16] was 840 nM.
With COC(=O)[C@H](Cc1cccc(C(=N)N)c1)[C@@H](/C=C/c1ccccc1)NC(=O)c1ccc(-c2ccc(OC)c(OC)c2)cc1 the IC50 [12] was 30 nM.
With CC1(C)CCCC(NC(=O)[C@@H](S)Cc2ccccc2)C(=O)N1CC(=O)O (some centres undefined) the IC50 [7] was 12 nM and the IC50 [14] was 63 nM.
For COCCOCC(CC1(C(=O)N[C@H]2CC[C@@H](C(=O)O)CC2)CCCC1)C(=O)Oc1ccc2c(c1)CCC2 (some centres undefined), the IC50 [14] was 28 nM.
NCc1ccc(CNC(=O)CNC(=O)OCc2ccc(COC(=O)NCC(=O)NCc3ccc(CN)cc3)cc2)cc1 showed a Ki [16] of 0.6 nM and a Ki [8] of 84000 nM.
In the case of CCC(=O)O[C@@H](O[P@](=O)(CCCCc1ccccc1)CC(=O)N1C[C@H](C2CCCCC2)C[C@H]1C(=O)O)C(C)C [FOSINOPRIL], the IC50 [7] is reported as 1 nM.
